| SMILES | melting point |
| --- | --- |
| CCOC(=O)OC1=C(c2c(C)cc(C)cc2C)C(=O)N(N(C)C)C12CCN(N(C)C)CC2 [Compound A2, Carbonic acid 1,8-bis-dimethylamino-2-oxo-3-(2,4,6-trimethyl-phenyl)-1,8-diaza-spiro[4.5]dec-3-en-4-yl ester ethyl ester] | 105 °C |
| Cc1cc(C)c(C2C(=O)N(N(C)C)C3(CCN(N(C)C)CC3)C2=O)c(C)c1 (centres unmarked) [Compound A1, 1,8-Bis-dimethylamino-3-(2,4,6-trimethyl-phenyl)-1,8-diaza-spiro[4.5]decane-2,4-dione] | 80 to 85 °C |
